Legend:
[1] = system: MCF7 xenografts; assay: MCF7 cell-derived xenograft (CDX) in vivo combination study; design: species or system BALB/c nude mice; settings: compound 1-1 10 mg/kg; for Δ TV ratio to vehicle group (A/C, B/C, (AB)/C): day 28, Clarke method; for Δ TV (delta tumor volume): p.o. qd for 28 days, average of four tumors
Protocol: […] (0.36 mg) pellets (Innovative Research of America Cat. No.: SE-121, pellet size: 3.0 mm) were implanted 2-3 days before cell inoculation.
(§1) Compound 1-1 was formulated every day freshly as a solution in 5% DMSO/95% (30% w/v HPβCD in water). This formulation was also used as vehicle control. Everolimus was formulated as a suspension in 1% MC (400 cps), which was prepared every 3 days.
(§2) Body weights were measured at the same time.
An approximation of drug interactions was made using the method described by Clarke (Clarke et al. 1997. Breast Cancer Res Treat. 46(2-3):255-78). This was applied to […] and can estimate interactions from limited data. In short, for compound A, B, or the combination AB (with control group C), antagonism is predicted when (AB)/C>(A/C)×(B/C), an additive effect is predicted when (AB)/C=(A/C)×(B/C), and synergistic interaction is predicted to occur when (AB)/C<(A/C)×(B/C). Calculations in Table 10B indicate that the interaction of everolimus and compound 1-1 in the MCF7 CDX model is synergistic.
17β-Estradiol (0.36 mg) pellets (Innovative Research of America Cat. No.: SE-121, pellet size: 3.0 mm) were implanted 2-3 days before cell inoculation.
(§3) Compound 1-1 was formulated every day freshly as a solution in 5% DMSO/95% (30% w/v HPβCD in water). This formulation was also used as vehicle control. Alpelisib was formulated as a solution in 20% captisol+80% water (pH adjusted to 4), which was prepared every week.

[2] = system: CAL51 xenografts; assay: CAL51 cell-derived xenograft (CDX) in vivo combination study; design: species or system SCID Beige mice; settings: compound 1-1 3 mg/kg; for antitumor effect vs vehicle (tumor volume): day 21, ANOVA with post hoc Tukey's test; for antitumor effect vs vehicle (tumor volume) / Δ TV ratio to vehicle group (A/C, B/C, (AB)/C): p.o. qd; for Δ TV ratio to vehicle group (A/C, B/C, (AB)/C): day 21, Clarke method; for Δ TV (delta tumor volume): p.o. qd for 21 days, average of four tumors
Protocol: as §1, §2, §3

O=C1CCC(N2Cc3ccc(COC(=O)Nc4cc(OC(F)(F)F)ccc4F)cc3C2=O)C(=O)N1 (stereo not drawn) [Compound 1-1, [2-(2,6-dioxopiperidin-3-yl)-3-oxo-2,3-dihydro-1H-isoindol-5-yl]methyl N-[2-fluoro-5-(trifluoromethoxy)phenyl]carbamate]
anti-tumor effect compared to vehicle ([1]; day 28, ANOVA with post hoc Tukey's test, alpelisib 50 mg/kg, p.o. qd): significant anti-tumor effect
antitumor effect vs vehicle (tumor volume) ([1]; day 28, ANOVA with post hoc Tukey's test, everolimus 2 mg/kg, p.o. qd): statistically significant antitumor effects
Δ TV ratio to vehicle group (A/C, B/C, (AB)/C) ([1]; alpelisib 50 mg/kg, p.o. qd): 0.35
Δ TV ratio to vehicle group (A/C, B/C, (AB)/C) ([1]; everolimus 2 mg/kg, p.o. qd): 0.35
Δ TV (delta tumor volume) ([1]; day 28, alpelisib 50 mg/kg, combination 50 + 10 mg/kg): 216 mm^3
Δ TV (delta tumor volume) ([1]; day 28, everolimus 2 mg/kg, combination 2 + 10 mg/kg): 216 mm3
antitumor effect vs vehicle (tumor volume) ([2]; alpelisib 20 mg/kg): neither alpelisib nor compound 1-1 produced a statistically significant antitumor effect
antitumor effect vs vehicle (tumor volume) ([2]; everolimus 2 mg/kg): statistically significant antitumor effect
Δ TV ratio to vehicle group (A/C, B/C, (AB)/C) ([2]; alpelisib 20 mg/kg): 0.38
Δ TV ratio to vehicle group (A/C, B/C, (AB)/C) ([2]; everolimus 2 mg/kg): 0.38
Δ TV (delta tumor volume) ([2]; day 21, alpelisib 20 mg/kg, combination 20 + 3 mg/kg): 215 mm3
Δ TV (delta tumor volume) ([2]; day 21, everolimus 2 mg/kg, combination 2 + 3 mg/kg): 215 mm3
